Patent US9314510B2, “Human laminin α2 chain LG3 domain and active peptides promoting cell adhesion, spreading, migration, and neurite outgrowth” (SNU R&DB Foundation, priority 2011, dated 2016)
Ends that are not written are not given here.

Assays:
PC12 cells [1] = test: Summary of cell adhesion, spreading, migration and neurite outgrowth promotive effects; type: cell-based, rat; conditions: summary statement of the description
Protocol: (§1) To measure cell adhesion, spreading, migration, and neurite outgrowth promotive activities of PC12 cells using the prepared synthetic peptides that are N- and C-terminal truncated or C-terminal added peptides of the Ln2-LG3-P2 peptide, peptides described in Table 1 were coated onto plates at 62.5 μg/mL and PC12 cells were seeded thereon.

PC12 cells [2] = test: Cell migration assay (transwell migration chambers); type: cell-based, rat; conditions: transwell filters coated with laminin 5 μg/mL, rLG proteins 25 μg/mL or peptides 62.5 μg/mL, 24 h
Protocol: Cell migration assays were performed using transwell migration chambers of 8 μm in pore size (Corning Inc., NY) as described in a paper published previously by the present inventors (Kim, J. M., Min, S. K., Kim, H., Kang, H. K., Jung, S. Y., Lee, S. H., Choi, Y., Roh, S., Jeong, D., and Min, B. M. (2007) Int. J. Mol. Med.).
The lower sides of transwell filters were coated with laminin (5 μg/mL) or rLG proteins (25 μg/mL) for 12 h at 4° C. The lower sides of transwell filters were blocked with 1% BSA in PBS for 1 h at 37° C. Cells were suspended at a density of 4×10^5 cells/mL in RPMI 1640 medium containing 0.5% FBS and 0.1% BSA. 100 μL of this suspension was seeded in the upper chamber of the transwell filter. Cells were allowed to migrate for 24 h at 37° C. and then fixed with 10% formalin for 15 min and stained with 0.5% crystal violet. Non-migrated cells in the upper chamber of transwell filters were removed with a cotton swab, viewed under a light microscope, and counted.
(§2) Specifically, to observe cell adhesion, spreading, migration, and neurite outgrowth promotion, the methods described in Experimental examples <2-1> to <2-3> were used and PC12 cells were cultured on plates coated with laminin (5 μg/mL), rLG3 (25 μg/mL), and rLG3-M1 (25 μg/mL) and observed. To observe cell adhesion, PC12 cells were incubated on the coated plates for 1 h and to observe cell spreading, PC12 cells were incubated on the coated plates for 3 h. To observe cell migration, PC12 cells were incubated on the coated plates for […].

PC12 cells [3] = test: Immunostaining of actin stress fibers and focal adhesions; type: cell-based, rat; conditions: PC12 cells on coated chamber slides, 3 h, serum-free
Protocol: Specifically, for immunostaining, PC12 cells were incubated on Lab-Tek chamber slides (Nalge Nunc International, Rochester, N.Y.) coated with laminin (5 μg/mL), rLG domain proteins (25 μg/mL), or Scrambled peptide (SP) (25 μg/well) in serum-free medium for 3 h at 37° C. Lab-Tek chamber slides were coated with BSA for the control. After rinsing with PBS, PC12 cells were fixed with 3.7% formalin for 20 min and permeabilized with 0.5% Triton X-100 for 5 min. PC12 cells were incubated with primary antibodies for 12 h at 4° C. The primary antibodies used were 1:500 anti-vinculin (Sigma-Aldrich 9131), or 1:300 rhodamin-phalloidin (Invitrogen R154) antibodies. After rinsing with PBS, PC12 cells were immunostained with FITC-conjugated anti-mouse IgG antibody (Jackson ImmunoResearch Laboratories, West Grove, Pa.) or rhodamin-conjugated anti-mouse IgG antibody (Santa Cruz Biotechnology) for 1 h at room temperature. After being washed three times with PBS, the stained PC12 cells were mounted and photographed using a confocal laser scanning microscope (FV300; Olympus, Japan).

PC12 cells [4] = test: Cell spreading assay on coated plates (cell surface area); type: cell-based, rat; conditions: 3 h, laminin 5 μg/mL, rLG proteins 25 μg/mL, peptides 62.5 μg/mL
Protocol: To determine cell spreading assays, the cells cultured on plates coated with each rLG domain protein for 1 h or 3 h in Experimental example <2-1> were fixed with 10% formalin. Then, the fixed cells were stained with 0.05% crystal violet for 1 h and plates were gently washed with PBS three times. The surface area of cells was measured with Image-Pro plus software (Version 4.5; Media Cybernetics, Silver Spring, Md.).
(§3) The present inventors compared the cellular activities of Ln2-LG3-P2 peptide to scrambled peptide (SEQ ID NO:20, NWEIRCIPGNPF) of Ln2-LG3-P2 peptide and Ln2-LG3-P1 peptide to Ln2-LG3-P5 peptide at a concentration of 62.5 μg/mL where the cell adhesion activity was the maximum. […] PC12 cells were cultured on plates which were coated in the same way for 3 h in serum-free medium and the cell spreading was observed.
as §2, §1

PC12 cells [5] = test: Effect of EDTA or MnCl2 pretreatment on cell adhesion and spreading; type: cell-based, rat; conditions: 5 mM EDTA or 1 mM MnCl2, 15 min; for cell adhesion to laminin after pretreatment / cell adhesion to rLG3 or Ln2-LG3-P2 after pretreatment: 1 h; for cell spreading to laminin after pretreatment / cell spreading to rLG3 or Ln2-LG3-P2 after pretreatment: 3 h
Protocol: PC12 cells were pretreated with either 5 mM EDTA or 1 mM MnCl2 for 15 min at 37° C. and seeded on plates coated with rLG3 or the Ln2-LG3-P2 peptide. To measure cell adhesion, PC12 cells were incubated on the coated plates for 1 h and absorbance was measured. To measure cell spreading, PC12 cells were incubated on the coated plates for 3 h and relative cell area was measured using Image-Pro Plus software.

PC12 cells [6] = test: Inhibition of cell adhesion to laminin by rLG3 / rLG3-M1 pretreatment; type: cell-based, rat; conditions: PC12 cells pretreated with 250 μg/mL; laminin 5 μg/mL
Protocol: In addition, PC12 cells were pretreated with rLG3 (250 or 500 μg/mL) or vehicle (phosphate buffer, pH 3.0) for 30 min and then seeded on plates coated with laminin (5 μg/mL) for 30 min in serum-free medium and cell adhesion was observed.

PC12 cells [7] = test: Cell adhesion assay on coated plates (crystal violet, absorbance 570 nm); type: cell-based, rat
Protocol: The cell adhesion assay was performed as described in a paper published previously by the present inventors (Kim, J. M., et al, Exp. Cell Res, 2005).
Specifically, 24-well culture plates (Nunc, Denmark) were coated with 5 μg/mL human placental laminin (Sigma-Aldrich, St. Louis, Mo.) or 25 μg/mL rLG domain proteins for 12 h at 4° C. The peptides were also coated on the plates by drying for 12 h at room temperature. The substrate-coated plates were blocked with 1% heat-inactivated bovine serum albumin (BSA) in PBS for 1 h at 37° C. and then washed with PBS.
The cells were trypsinized with trypsin/EDTA and resuspended in serum-free culture medium. The cells were added at a density of 2×10^5 cells/500 μL to each plate and incubated in serum-free culture medium for 1 h at 37° C. After incubation, unattached cells were removed by rinsing twice with PBS. The attached cells were fixed with 10% formalin for 15 min and then stained with 0.5% crystal violet for 1 h. Plates were gently washed with distilled water three times and dissolved with 2% SDS for 5 min. Absorbance was measured at 570 nm using a microplate reader (BioRad).
First, PC12 cells were cultured on plates coated with varying amounts of five kinds of Ln2-PG3 peptides and then cell adhesion was observed. The peptides were coated in concentrations ranging from 0 to 125 μg/mL on plates by drying them for 12 h at room temperature.
as §3, §2, §1

PC12 cells [8] = test: Neurite outgrowth assay; type: cell-based, rat; conditions: PC12 cells on coated plates, serum-free, 24 h + 72 h
Protocol: Laminin, rLG domain protein, and the peptide were coated onto plates and cells were seeded on the plates in serum-free medium and incubated for 24 h. After changing with serum-free medium again, cells were further cultured for 72 h and neurite outgrowth was examined.

PC12 cells [9] = test: Effect of calphostin C pretreatment on cell adhesion; type: cell-based, rat; conditions: PC12 cells, 0.05, 0.1, 0.5 μM, 15 min; 1 h
Protocol: PC12 cells were pretreated with 0.05 μM, 0.1 μM, and 0.5 μM of calphostin C for 15 min at 37° C. and then incubated on plates coated with rLG3 or the Ln2-LG3-P2 peptide for 1 h.

PC12 cells [10] = conditions: at the indicated concentrations and duration of treatment
PC12 cells [11] = test: Cell adhesion inhibition assay: peptide pretreatment, adhesion to rLG3-coated plates; type: cell-based, rat; conditions: PC12 cells pretreated with 500 μg/mL peptide; rLG3 25 μg/mL
Protocol: Specifically, PC12 cells were pretreated with the Ln2-LG3-P2 peptide in concentrations of 0, 0.2, 0.4, 0.6, 0.8, 1.0, or 1.2 μg/mL for 10 min at room temperature and then cultured on plates coated with rLG3 (25 μg/mL) for 1 h in serum-free medium.
PC12 cells were pretreated with 500 μg/mL of Ln2-LG3-P1, Ln2-LG3-P2, Ln2-LG3-P3, Ln2-LG3-P4, Ln2-LG3-P5 and SP (scramble peptide) (SEQ ID NO:20) for 10 min at room temperature and then cultured on plates coated with rLG3 (25 μg/mL) in serum-free medium. To observe cell adhesion, PC12 cells were incubated on the coated plates for 1 h and to observe cell spreading, PC12 cells were incubated on the coated plates for 3 h. To observe cell migration, cells were seed into the upper chamber of transwell filters coated with rLG3 (25 μg/mL) and cultured for 24 h. Cell migration was quantified by counting the number of cells that had migrated through the filter.
Specifically, PC12 cells were pretreated with Ln2-LG2-P2 (500 μg/mL) and Ln2-LG3-P2A (500 μg/mL) and then, cell adhesion was observed on plates coated with rLG3 (25 μg/mL).

**Q.** With “RNIPPFEGCIWNLVINSVPMDFARPVSFKNADIGRC (RNIPPFEGCIWNLVINSVPMDFARPVSFKNADIGRC-NH2; cysteine pairing not given here) [Ln2-LG3-P2-AC2, C-terminal added Ln2-LG3-P2]” as the compound, how does the “cell adhesion, spreading, migration, and neurite outgrowth promotive effects” value (“cell adhesion, spreading, migration” for short) (PC12 cells [1]) read?
**A.** The value was “significantly excellent”.

**Q.** For “PPFEGCIWN (PPFEGCIWN-NH2) [Ln2-LG3-P2-DN3, N-terminal truncated Ln2-LG3-P2]”, which “cell adhesion, spreading, migration” value (PC12 cells [1]) is on record?
**A.** The value was “significantly excellent”.

**Q.** “PFEGCIWN (PFEGCIWN-NH2) [Ln2-LG3-P2-DN4, N-terminal truncated Ln2-LG3-P2]” was tested. Which cell migration (PC12 cells [2]) did it give?
**A.** The cell migration was “did not show cell migration activity”.

**Q.** How did the “cell adhesion, spreading, migration” value (PC12 cells [1]) turn out when “RNIPPFEGCIWNLVINSVPMDFAR (RNIPPFEGCIWNLVINSVPMDFAR-NH2) [Ln2-LG3-P2-AC1, C-terminal added Ln2-LG3-P2]” was run?
**A.** The value was “significantly excellent”.

**Q.** With “NWEIRCIPGNPF (NWEIRCIPGNPF-NH2) [scrambled peptide, scrambled peptide of Ln2-LG3-P2 peptide, negative control, reference compound]” as the compound, how does the “actin stress fiber formation and focal adhesions” value (PC12 cells [3]) read?
**A.** Its value is “did not organize actin stress fibers”.

**Q.** And the “cell spreading (immunostaining)” value (PC12 cells [3])?
**A.** Its value is “no effect on spreading”.

**Q.** And the cell migration (PC12 cells [2])?
**A.** Its cell migration is “entirely ineffective”.

**Q.** And the cell spreading (PC12 cells [4])?
**A.** Its cell spreading is “entirely ineffective”.

**Q.** What does the source list for `[Cl][Mn][Cl]` [Mn^2+, MnCl2]?
**A.** cell adhesion to laminin after pretreatment (PC12 cells [5]): significantly enhanced; cell adhesion to rLG3 or Ln2-LG3-P2 after pretreatment (PC12 cells [5]): significantly enhanced; cell spreading to laminin after pretreatment (PC12 cells [5]): significantly enhanced; cell spreading to rLG3 or Ln2-LG3-P2 after pretreatment (PC12 cells [5]): significantly enhanced

**Q.** What does the source list for “rLG3-M1: mutant rLG3 protein, Arg in the Ln2-LG3-P2 site substituted with Ala (ANIPPFEGCIWN) (rLG3-M1)”?
**A.** inhibition of cell adhesion to laminin (in words) (PC12 cells [6]): did not inhibit; cell adhesion (PC12 cells [7]; PC12 cells on coated plates, 1 h, serum-free, laminin 5 μg/mL, rLG proteins 25 μg/mL, peptides 62.5 μg/mL (0 to 125 μg/mL in FIG. 2B)): significantly reduced levels; cell migration (PC12 cells [2]): significantly reduced levels; cell spreading (PC12 cells [4]): significantly reduced levels; neurite outgrowth (PC12 cells [8]): significantly reduced levels

**Q.** `O=C(O)CN(CCN(CC(=O)O)CC(=O)O)CC(=O)O` [EDTA] was tested. Which “cell adhesion to laminin after pretreatment” value (PC12 cells [5]) did it give?
**A.** Its value is “completely inhibited”.

**Q.** And the “cell adhesion to rLG3 or Ln2-LG3-P2 after pretreatment” value (PC12 cells [5])?
**A.** The value was “partially inhibited”.

**Q.** And the “cell spreading to laminin after pretreatment” value (PC12 cells [5])?
**A.** Its value is “completely inhibited”.

**Q.** What about the “cell spreading to rLG3 or Ln2-LG3-P2 after pretreatment” value (PC12 cells [5]) of the same compound?
**A.** The value was “partially inhibited”.

**Q.** calphostin C was tested. Which “cell adhesion activities to laminin, rLG3, and Ln2-LG3-P2 after inhibitor pretreatment” value (PC12 cells [9]) did it give?
**A.** Its value is “significantly inhibited in a dose-dependent manner”.

**Q.** And the cell growth (PC12 cells [10])?
**A.** Its cell growth is “did not affect cell growth”.

**Q.** How did the “cell adhesion compared to the control group Ln2-LG3-P2” value (PC12 cells [7]; PC12 cells on plates coated with peptide (500 μg/mL, FIG. 3H)) turn out when “Ln2-LG3-P2A: Ln2-LG3-P2 peptide synthesized by substituting Arg with Ala (ANIPPFEGCIWN-NH2)” was run?
**A.** The value was “significantly inhibited”.

**Q.** What about the “inhibition of cell adhesion to rLG3 (in words)” value (PC12 cells [11]) of the same compound?
**A.** Its value is “did not inhibit”.
